Assay results as given in patent US11970479B2, “3-(1H-pyrazol-4-yl)pyridine allosteric modulators of the M4 muscarinic acetylcholine receptor” (Merck Sharp & Dohme LLC, priority 2018, dated 2024).

Target: T1, human M4 muscarinic acetylcholine receptor (Homo sapiens, UniProt P08173)
T1 construct: expressed in transfected cells
T1 sequence (P08173 1-479): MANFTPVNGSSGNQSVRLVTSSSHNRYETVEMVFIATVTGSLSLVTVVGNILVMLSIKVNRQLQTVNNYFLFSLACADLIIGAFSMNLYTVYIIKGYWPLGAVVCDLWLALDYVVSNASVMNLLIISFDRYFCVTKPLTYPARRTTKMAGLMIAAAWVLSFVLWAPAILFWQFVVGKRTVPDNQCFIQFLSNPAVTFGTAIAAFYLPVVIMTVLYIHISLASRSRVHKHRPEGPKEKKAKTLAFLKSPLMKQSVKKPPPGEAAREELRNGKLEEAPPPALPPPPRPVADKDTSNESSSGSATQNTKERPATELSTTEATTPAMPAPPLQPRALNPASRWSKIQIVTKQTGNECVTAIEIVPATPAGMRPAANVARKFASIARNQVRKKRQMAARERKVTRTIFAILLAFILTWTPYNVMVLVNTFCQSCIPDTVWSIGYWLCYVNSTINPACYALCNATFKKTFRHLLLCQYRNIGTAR
Assay: human FLIPR-based M4 PAM assay (CHO-K1 cells with human M4 receptor and Gαqi5, calcium dye fluorescence, EC20 acetylcholine)
Assay type: cell-based
Conditions: inflection point (IP) of the dose response curve, human M4 receptor/Gαqi5, acetylcholine at 20% of maximum response, read-out: M4PAM Hu IP
Experimental: (§1) In a typical experiment the M4 muscarinic acetylcholine receptor modulating activity of the compounds of the present invention was determined in accordance with the following experimental method. CHO-K1 cells stably transfected with human M4 receptor and chimeric G-protein Gαqi5 (Coward P, et al., Analytical Biochemistry, 270:242-248 (1999)) are thawed from liquid N2 storage, resuspended in growth medium, plated in black, clear bottom 384 well plates, and incubated 16-20 hours at 37° C., 5% CO2. On the day of assay, growth medium is removed, the cells are washed 2 times with wash buffer, and cells are incubated in dye loading buffer at 37° C., 5% CO2 for ˜1 hour. Following dye loading the cell plates are placed in a FLIPR Tetra instrument and while monitoring dye fluorescence (excitation […]), 10 uL of test substance at increasing concentrations is added, and fluorescence values are recorded for 4 min. Next, 10 uL of acetylcholine is added (final concentration calculated so as to achieve 20% of the maximum acetycholine response), and the fluorescence reading is continued for 3.5 min. In some cases, a third addition of acetylcholine (final concentration calculated to achieve 70% of the maximal acetylcholine response) is performed. The resulting dose response curves are fit to a 4 parameter logistic equation and the final result is determined as the inflection point (IP) of the curve
as §1, with “CHO-K1” for “In a typical experiment the M4 muscarinic acetylcholine receptor modulating activity of the compounds of the present invention was determined in accordance with the following experimental method. CHO-K1”, “Gαqi5” for “Gαqi5 (Coward P, et al., Analytical Biochemistry, 270:242-248 (1999))”, “performed.” for “performed. The resulting dose response curves are fit to a 4 parameter logistic equation and the final result is determined as the inflection point (IP) of the curve”

| SMILES | EC50 |
| --- | --- |
| CC(C)(C)Cn1cc(-c2ccc(C#N)nc2-c2ccc3ccnnc3c2)cn1 [Example 43, 6-cinnolin-7-yl-5-[1-(2,2-dimethylpropyl)-1H-pyrazol-4-yl]pyridine-2-carbonitrile] | 112 nM |
| N#Cc1ccc(-c2cnn(CC3(C(F)(F)F)CC3)c2)c(-c2ccc3cccnc3c2)n1 [Example 44, 6-quinolin-7-yl-5-(1-{[1-(trifluoromethyl)cyclopropyl]methyl}-1H-pyrazol-4-yl)pyridine-2-carbonitrile] | 61 nM |
| COc1cc2ccc(-c3nc(C#N)ccc3-c3cnn(CC4(C(F)(F)F)CC4)c3)cc2nn1 [Example 45, 6-(3-methoxycinnolin-7-yl)-5-(1-{[1-(trifluoromethyl)cyclopropyl]methyl}-1H-pyrazol-4-yl)pyridine-2-carbonitrile] | 60 nM |
| COc1ccc(-c2cnn(CCC(C)C)c2)c(-c2ccc3cccnc3c2)n1 [Example 48, 7-{6-methoxy-3-[1-(3-methylbutyl)-1H-pyrazol-4-yl]pyridine-2-yl}quinoline] | 220 nM |
| Cc1ccnc(-c2ccc3cccnc3c2)c1-c1cnn(CCC(C)C)c1 [Example 50, 7-{4-methyl-3-[1-(3-methylbutyl)-1H-pyrazol-4-yl]pyridin-2-yl}quinoline] | 188 nM |
| CC(C)CCn1cc(-c2cc(Cl)cnc2-c2ccc3cccnc3c2)cn1 [Example 52, 7-{5-chloro-3-[1-(3-methylbutyl)-1H-pyrazol-4-yl]pyridin-2-yl}quinoline] | 145 nM |
| COc1cc2ccc(-c3ncc(Cl)cc3-c3cnn(CCC(C)C)c3)cc2nn1 [Example 53, 7-{5-chloro-3-[1-(3-methylbutyl)-1H-pyrazol-4-yl]pyridin-2-yl}-3-methoxycinnoline] | 131 nM |
| CC(C)(C)Cn1cc(-c2cc(F)cnc2-c2ccc3cccnc3c2)cn1 [Example 55, 7-{3-[1-(2,2-dimethylpropyl)-1H-pyrazol-4-yl]-5-fluoropyridin-2-yl}quinoline] | 108 nM |
| Cc1nc(-c2ccc3cccnc3c2)c(-c2cnn(CC3(C(F)(F)F)CC3)c2)cc1C#N [Example 56, 2-methyl-6-quinolin-7-yl-5-(1-{[1-(trifluoromethyl)cyclopropyl]methyl}-1H-pyrazol-4-yl)pyridine-3-carbonitrile] | 275 nM |
| COc1cc2ccc(-c3nc(C)c(C#N)cc3-c3cnn(CC4(C(F)(F)F)CC4)c3)cc2nn1 [Example 57, 6-(3-methoxycinnolin-7-yl)-2-methyl-5-(1-{[1-(trifluoromethyl)cyclopropyl]methyl}-1H-pyrazol-4-yl)pyridine-3-carbonitrile] | 243 nM |
| CC(C)(C)Cn1ncc(-c2ccc(C#N)nc2-c2ccc3cccnc3c2)c1F [Example 58, 5-[1-(2,2-dimethylpropyl)-5-fluoro-1H-pyrazol-4-yl]-6-quinolin-7-ylpyridine-2-carbonitrile] | 51 nM |
| N#Cc1ccc(-c2cnn(CC3(C(F)(F)F)CC3)c2F)c(-c2ccc3cccnc3c2)n1 [Example 59, 5-(5-fluoro-1-{[1-(trifluoromethyl)cyclopropyl]methyl}-1H-pyrazol-4-yl)-6-quinolin-7-ylpyridine-2-carbonitrile] | 57 nM |
| CC(C)C(=O)Cn1cc(-c2ccc(C#N)nc2-c2ccc3cccnc3c2)cn1 [Example 60, 5-[1-(3-methyl-2-oxobutyl)-1H-pyrazol-4-yl]-6-quinolin-7-ylpyridine-2-carbonitrile] | 181 nM |
| CC(C)C(F)(F)Cn1cc(-c2ccc(C#N)nc2-c2ccc3cccnc3c2)cn1 [Example 61, 5-[1-(2,2-difluoro-3-methylbutyl)-1H-pyrazol-4-yl]-6-quinolin-7-ylpyridine-2-carbonitrile] | 26 nM |
| CC(C)CCn1cc(-c2cccnc2-c2ccc3ccc(Cl)nc3c2)cn1 [Example 62, 2-chloro-7-{3-[1-(3-methylbutyl)-1H-pyrazol-4-yl]pyridin-2-yl}quinoline] | 84 nM |
| CC(C)CCn1cc(-c2ccc(Cl)nc2-c2ccc3cccnc3c2)cn1 [Example 63, 7-{6-chloro-3-[1-(3-methylbutyl)-1H-pyrazol-4-yl]pyridin-2-yl}quinoline] | 26 nM |
| CC(C)CCn1cc(-c2ccc(F)nc2-c2ccc3cccnc3c2)cn1 [Example 65, 7-{6-fluoro-3-[1-(3-methylbutyl)-1H-pyrazol-4-yl]pyridin-2-yl}quinoline] | 95 nM |
| CC(C)CCn1cc(-c2ccc(C#N)nc2-c2ccc3cccnc3c2)cn1 [Example 66, 5-[1-(3-methylbutyl)-1H-pyrazol-4-yl]-6-quinolin-7-ylpyridine-2-carbonitrile] | 24 nM |
| CC(C)CCn1cc(-c2ccc(C3=CCOCC3)nc2-c2ccc3cccnc3c2)cn1 [Example 67, 7-{6-(3,6-dihydro-2H-pyran-4-yl)-3-[1-(3-methylbutyl)-1H-pyrazol-4-yl]pyridin-2-yl}quinoline] | 121 nM |
| C=Cc1ccc(-c2cnn(CCC(C)C)c2)c(-c2ccc3cccnc3c2)n1 [Example 72, 7-{6-ethenyl-3-[1-(3-methylbutyl)-1H-pyrazol-4-yl]pyridin-2-yl}quinoline] | 191 nM |
| CCc1ccc(-c2cnn(CCC(C)C)c2)c(-c2ccc3cccnc3c2)n1 [Example 73, 7-{6-ethyl-3-[1-(3-methylbutyl)-1H-pyrazol-4-yl]pyridin-2-yl}quinoline] | 140 nM |

More lines, in order of falling EC50, values ahead:

| EC50 | SMILES |
| --- | --- |
| 414 nM | COc1ccnc(-c2ccc3cccnc3c2)c1-c1cnn(CCC(C)C)c1 [Example 51, 7-{4-methoxy-3-[1-(3-methylbutyl)-1H-pyrazol-4-yl]pyridin-2-yl}quinoline] |
| 295 nM | CC(C)CCn1cc(-c2c(Cl)ccnc2-c2ccc3cccnc3c2)cn1 [Example 64, 7-{4-chloro-3-[1-(3-methylbutyl)-1H-pyrazol-4-yl]pyridin-2-yl}quinoline] |
| 233 nM | CC(C)CCn1cc(-c2ccc(C3CC3)nc2-c2ccc3cccnc3c2)cn1 [Example 70, 7-{6-(cyclopropyl)-3-[1-(3-methylbutyl)-1H-pyrazol-4-yl]pyridin-2-yl}quinoline] |
| 222 nM | Cc1cnc(-c2ccc3cccnc3c2)c(-c2cnn(CCC(C)C)c2)c1 [Example 71, 7-{5-methyl-3-[1-(3-methylbutyl)-1H-pyrazol-4-yl]pyridin-2-yl}quinoline] |
| 185 nM | CCCc1ccc(-c2cnn(CCC(C)C)c2)c(-c2ccc3cccnc3c2)n1 [Example 69, 7-{3-[1-(3-methylbutyl)-1H-pyrazol-4-yl]-6-propylpyridin-2-yl}quinoline] |
| 169 nM | CC(C)C(O)Cn1cc(-c2ccc(C#N)nc2-c2ccc3cccnc3c2)cn1 (centres unmarked) [Example 46, 5-[1-(2-hydroxy-3-methylbutyl)-1H-pyrazol-4-yl]-6-quinolin-7-ylpyridine-2-carbonitrile] |
| 118 nM | CC(C)CCn1cc(-c2ccc(-c3ccnn3C)nc2-c2ccc3cccnc3c2)cn1 [Example 68, 7-{3-[1-(3-methylbutyl)-1H-pyrazol-4-yl]-6-(1-methyl-1H-pyrazol-5-yl)pyridin-2-yl}quinoline] |
| 88 nM | N#Cc1nc(-c2ccc3cccnc3c2)c(-c2cnn(CC3(C(F)(F)F)CC3)c2)cc1F [Example 47, 3-fluoro-6-quinolin-7-yl-5-(1-{[1-(trifluoromethyl)cyclopropyl]methyl}-1H-pyrazol-4-yl)pyridine-2-carbonitrile] |
| 84 nM | CC(C)CCn1cc(-c2ccc(C(F)(F)F)nc2-c2ccc3cccnc3c2)cn1 [Example 49, 7-{3-[1-(3-methylbutyl)-1H-pyrazol-4-yl]-6-(trifluoromethyl)pyridin-2-yl}quinoline] |
| 53 nM | COc1cc2ccc(-c3nc(C(F)F)ccc3-c3cnn(CC(C)(C)C)c3)cc2nn1 [Example 54, 7-{6-(difluoromethyl)-3-[1-(2,2-dimethylpropyl)-1H-pyrazol-4-yl]pyridin-2-yl}-3-methoxycinnoline] |
| 39 nM | CC(C)CCn1cc(-c2ccc(Br)nc2-c2ccc3cccnc3c2)cn1 [Example 74, 7-{6-bromo-3-[1-(3-methylbutyl)-1H-pyrazol-4-yl]pyridin-2-yl}quinoline] |
